For data set [1], the system named is panel of 46 protein kinases. The experiment in a line: DSF kinome selectivity panel, hits over 2 °C. Type of data set: binding. The settings on record: 10 μM compound, average of 4 experiments; for Number of Kinases Hit DSF > 2 °C: of 46 kinases; for Kinases Hit DSF > 2 °C: names of the kinases hit, 46 kinases. Here is the method: (§1) The corresponding dianilino-TDZs (1–5) were tested on a panel of 46 protein kinases representing the major kinome branches at a concentration of 10 μM using a Differential Scanning Fluorimetry (DSF). Only analogues 1–3 induced a significant (>2 °C) thermal shift when incubated with a subset of the proteins (Table 1).
(§2) Kinase selectivity assay—A home-made kinase panel was generated for the following enzymes: AAK1, BMP2K, BMX, BRAF, CAMK1D, CAMK1G, CAMKK1, CAMKK2B, CDC42BPA, CDK2, CDKL1, CHEK2, CLK1, CSNK1G1, CSNK1G3, CSNK2A1, DYRK1A, DYRK2A, EPHA2, GAK, GSG2, MAPK1, MAP2K7, MAPK14B, MAPK3, PHKG2, PIM1, PLK1, PKMYT1, PRPF4B, RPS6KA1A, RPS6KA5A, RPS6KA6A, SLK, SRPK1, SRPK2, STK3, STK6, STK10, STK17A, STK24, STK38L, TRIB2, TTK, VRK1 and VRK2. Proteins were produced in E. coli, purified in a Ni-chelate column, followed by overnight digestion using TEV protease (made in house with an N-terminal 6xHis tag) and dialysis to remove imidazole. To clear samples of uncleaved proteins and the TEV protease, samples were loaded on new Ni-chelate columns. The flow through was collected, concentrated and loaded to a HiLoad Superdex 200 16/600 column (GE Healthcare, Chicago, IL, USA) for final polishing and buffer exchange.
(§3) Starting from 100 µM protein stocks, our kinase panel enzymes were diluted to 1 µM in buffer 100 mM K2HPO4 pH 7.5 containing 150 mM NaCl, 10% glycerol and 5X dye (Applied Biosystems catalogue 4461806). The protein/dye mixture was transferred to a 384-well PCR microplate having 20 µL per well. Compounds in DMSO at 10 mM concentration were added in 20 nL volume, using a liquid handling device setup with a pin head, to make 10 µM compound concentration in the assay plate.
(§4) Protein thermal shift data was measured in a qPCR instrument (Applied Biosystems QuantStudio 6) programmed to equilibrate the plate at 25 °C for 5 min followed by ramping the temperature to 95 °C at a rate of 0.05 °C/s. Data was processed using Protein Thermal shift software (Applied Biosystems) by fitting experimental curves to a Boltzmann function to calculate differential thermal shifts (dTm) referenced to protein/dye in 0.2% DMSO.

For a further data set, the target named is T1, DYRK1AA (Homo sapiens, UniProt Q13627).
T1 construct: purchased in-house (home-made panel, SGC-style construct names)
Description: DSF thermal shift, kinase panel. The settings on record: 10 μM compound. Type of data set: binding. Here is the method: as §1, §2, §3, §4

The target in the next data set is T2, CDK2 (Homo sapiens, UniProt P24941).
T2 construct: purchased in-house (home-made panel, SGC-style construct names)
Description: DSF thermal shift, kinase panel. The data set is classed as binding. Conditions: 10 μM compound. The method, then:
as §1, §2, §3, §4

The target in the next data set is T3, RPS6KA1A (Homo sapiens, UniProt Q15418).
T3 construct: purchased in-house (home-made panel, SGC-style construct names)
T3 sequence (Q15418 whole entry): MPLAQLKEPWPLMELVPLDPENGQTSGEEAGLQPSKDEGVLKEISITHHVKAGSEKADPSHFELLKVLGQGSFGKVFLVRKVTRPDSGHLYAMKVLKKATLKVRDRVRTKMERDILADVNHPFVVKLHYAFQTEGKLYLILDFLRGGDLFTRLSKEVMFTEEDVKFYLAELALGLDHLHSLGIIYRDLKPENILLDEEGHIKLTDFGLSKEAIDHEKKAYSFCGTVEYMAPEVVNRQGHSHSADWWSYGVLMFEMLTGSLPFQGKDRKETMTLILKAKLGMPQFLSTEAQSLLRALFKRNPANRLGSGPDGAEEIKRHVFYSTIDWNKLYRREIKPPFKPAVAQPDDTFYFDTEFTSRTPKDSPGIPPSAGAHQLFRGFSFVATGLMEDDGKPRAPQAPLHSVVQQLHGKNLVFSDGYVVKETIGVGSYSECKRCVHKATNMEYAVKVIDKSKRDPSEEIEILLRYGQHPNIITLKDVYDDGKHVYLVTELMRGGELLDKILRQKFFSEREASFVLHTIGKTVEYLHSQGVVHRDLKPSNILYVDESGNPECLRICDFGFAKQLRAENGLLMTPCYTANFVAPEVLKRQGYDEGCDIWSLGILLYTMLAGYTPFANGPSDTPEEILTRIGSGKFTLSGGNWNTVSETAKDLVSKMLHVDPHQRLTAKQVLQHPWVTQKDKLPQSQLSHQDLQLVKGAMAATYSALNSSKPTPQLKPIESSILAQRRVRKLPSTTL
The experiment in a line: DSF thermal shift, kinase panel. The settings on record: 10 μM compound. The data set is classed as binding. Here is the method:
as §1, §2, §3, §4

In a further data set the target is T4, PKMYT1A (Homo sapiens, UniProt Q99640).
T4 construct: purchased in-house (home-made panel, SGC-style construct names)
T4 sequence (Q99640 1-499): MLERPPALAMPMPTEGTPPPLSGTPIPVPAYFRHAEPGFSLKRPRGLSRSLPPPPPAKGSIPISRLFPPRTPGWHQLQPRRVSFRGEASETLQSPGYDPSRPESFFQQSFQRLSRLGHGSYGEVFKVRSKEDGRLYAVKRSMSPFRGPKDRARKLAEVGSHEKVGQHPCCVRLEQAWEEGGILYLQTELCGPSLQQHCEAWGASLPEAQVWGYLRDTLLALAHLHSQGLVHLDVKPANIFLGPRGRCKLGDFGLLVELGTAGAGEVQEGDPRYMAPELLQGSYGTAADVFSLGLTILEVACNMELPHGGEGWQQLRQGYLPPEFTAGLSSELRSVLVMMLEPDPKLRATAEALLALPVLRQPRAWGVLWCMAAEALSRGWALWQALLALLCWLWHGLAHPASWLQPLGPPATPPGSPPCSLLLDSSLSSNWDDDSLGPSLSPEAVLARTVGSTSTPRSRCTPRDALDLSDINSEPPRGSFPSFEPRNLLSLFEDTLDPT
The experiment in a line: DSF thermal shift, kinase panel. Type of data set: binding. Conditions: 10 μM compound. Here is the method: as §1, §2, §3, §4

The next data set has as its target T5, MAPK3A (Homo sapiens, UniProt P27361).
T5 construct: purchased in-house (home-made panel, SGC-style construct names)
The experiment in a line: DSF thermal shift, kinase panel. The data set is classed as binding. The settings on record: 10 μM compound. The method, then:
as §1, §2, §3, §4

Another data set addresses T6, RPS6KA6A (Homo sapiens, UniProt Q9UK32).
T6 construct: purchased in-house (home-made panel, SGC-style construct names)
The experiment in a line: DSF thermal shift, kinase panel. The settings on record: 10 μM compound. The data set is classed as binding. The method, then: as §1, §2, §3, §4

Another data set addresses T7, TRIB2A (Homo sapiens, UniProt Q92519).
T7 construct: TEV-cleavable (cleaved yes); made in house; host or cells: E. coli
T7 sequence (Q92519 1-343): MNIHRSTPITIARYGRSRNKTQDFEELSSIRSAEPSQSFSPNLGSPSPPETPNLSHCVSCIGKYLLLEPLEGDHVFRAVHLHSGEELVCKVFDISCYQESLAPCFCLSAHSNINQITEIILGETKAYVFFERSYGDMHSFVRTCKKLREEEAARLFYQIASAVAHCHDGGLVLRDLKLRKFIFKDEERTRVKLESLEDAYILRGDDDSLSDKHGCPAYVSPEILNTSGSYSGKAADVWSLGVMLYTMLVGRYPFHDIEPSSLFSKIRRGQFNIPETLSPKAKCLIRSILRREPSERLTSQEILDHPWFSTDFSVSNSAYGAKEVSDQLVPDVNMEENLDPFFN
Description: DSF thermal shift, kinase panel. Type of data set: binding. Conditions: 10 μM compound. Here is the method:
as §1, §2, §3, §4

A further data set has as its target T8, CDC42BPA (Homo sapiens, UniProt Q5VT25).
T8 construct: purchased in-house (home-made panel, SGC-style construct names)
Description: DSF thermal shift, kinase panel. The data set is classed as binding. The settings on record: 10 μM compound. The method, then:
as §1, §2, §3, §4

Each structure is given as a SMILES string. Entries after “also recorded” stand apart in the source; their conditions may differ. Where only a bound is given, the exact number is not on record here.

In general, ΔTm refers to the change in melting temperature against a reference sample. By melting point is commonly meant the temperature, or range, at which the solid turns liquid.

T5 sequence (P27361 whole entry): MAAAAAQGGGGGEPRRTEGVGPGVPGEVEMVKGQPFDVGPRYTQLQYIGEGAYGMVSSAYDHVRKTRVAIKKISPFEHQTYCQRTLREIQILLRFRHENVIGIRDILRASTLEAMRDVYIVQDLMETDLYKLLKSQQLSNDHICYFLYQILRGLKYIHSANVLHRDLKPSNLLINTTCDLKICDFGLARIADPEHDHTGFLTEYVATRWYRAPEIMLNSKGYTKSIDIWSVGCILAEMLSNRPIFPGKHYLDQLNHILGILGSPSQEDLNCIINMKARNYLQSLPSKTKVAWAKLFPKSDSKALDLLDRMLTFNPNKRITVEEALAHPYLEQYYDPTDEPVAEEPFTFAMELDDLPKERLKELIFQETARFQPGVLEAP
T8 sequence (Q5VT25 whole entry): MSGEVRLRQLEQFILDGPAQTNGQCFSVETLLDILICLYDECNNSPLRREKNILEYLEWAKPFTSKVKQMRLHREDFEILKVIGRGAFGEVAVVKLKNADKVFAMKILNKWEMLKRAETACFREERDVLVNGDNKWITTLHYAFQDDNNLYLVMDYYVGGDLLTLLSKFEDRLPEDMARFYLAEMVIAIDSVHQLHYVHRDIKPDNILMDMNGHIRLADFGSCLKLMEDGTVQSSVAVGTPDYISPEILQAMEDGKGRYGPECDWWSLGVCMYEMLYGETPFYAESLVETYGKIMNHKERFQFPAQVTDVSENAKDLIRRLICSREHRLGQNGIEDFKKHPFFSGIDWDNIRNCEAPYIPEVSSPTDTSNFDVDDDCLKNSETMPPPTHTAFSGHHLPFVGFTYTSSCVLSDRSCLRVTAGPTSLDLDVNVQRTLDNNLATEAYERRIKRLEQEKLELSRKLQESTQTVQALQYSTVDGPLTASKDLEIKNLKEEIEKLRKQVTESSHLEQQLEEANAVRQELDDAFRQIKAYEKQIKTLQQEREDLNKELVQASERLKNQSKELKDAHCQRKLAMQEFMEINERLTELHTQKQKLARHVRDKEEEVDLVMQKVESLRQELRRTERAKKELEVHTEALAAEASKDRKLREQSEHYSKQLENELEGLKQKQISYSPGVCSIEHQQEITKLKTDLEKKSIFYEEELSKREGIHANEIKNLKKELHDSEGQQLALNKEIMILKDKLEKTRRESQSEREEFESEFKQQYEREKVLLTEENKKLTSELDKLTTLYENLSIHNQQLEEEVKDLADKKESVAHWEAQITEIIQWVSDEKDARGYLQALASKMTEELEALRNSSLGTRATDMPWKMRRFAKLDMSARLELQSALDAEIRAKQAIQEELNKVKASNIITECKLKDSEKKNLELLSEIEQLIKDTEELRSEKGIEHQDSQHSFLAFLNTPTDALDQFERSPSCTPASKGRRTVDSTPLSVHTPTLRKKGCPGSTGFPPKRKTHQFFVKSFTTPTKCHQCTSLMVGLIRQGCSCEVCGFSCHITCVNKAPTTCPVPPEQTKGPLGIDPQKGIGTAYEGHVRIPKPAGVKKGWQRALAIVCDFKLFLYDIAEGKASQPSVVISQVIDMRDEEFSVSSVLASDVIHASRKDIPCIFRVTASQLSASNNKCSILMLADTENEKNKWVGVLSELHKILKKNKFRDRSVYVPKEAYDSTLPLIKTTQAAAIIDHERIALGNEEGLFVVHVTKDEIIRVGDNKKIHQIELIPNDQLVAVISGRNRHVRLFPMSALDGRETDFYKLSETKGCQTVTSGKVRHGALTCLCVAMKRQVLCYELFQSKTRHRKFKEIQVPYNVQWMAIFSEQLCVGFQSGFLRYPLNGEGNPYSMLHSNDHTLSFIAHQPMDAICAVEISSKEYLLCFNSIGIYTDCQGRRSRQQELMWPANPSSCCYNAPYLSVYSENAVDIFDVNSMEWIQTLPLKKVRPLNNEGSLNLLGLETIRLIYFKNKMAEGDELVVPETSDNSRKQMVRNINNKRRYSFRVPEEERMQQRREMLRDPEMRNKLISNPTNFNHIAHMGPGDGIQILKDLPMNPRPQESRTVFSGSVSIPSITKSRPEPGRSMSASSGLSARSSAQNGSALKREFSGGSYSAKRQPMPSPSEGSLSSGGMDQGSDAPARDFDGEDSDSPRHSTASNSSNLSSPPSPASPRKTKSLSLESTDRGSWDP
T6 sequence (Q9UK32 whole entry): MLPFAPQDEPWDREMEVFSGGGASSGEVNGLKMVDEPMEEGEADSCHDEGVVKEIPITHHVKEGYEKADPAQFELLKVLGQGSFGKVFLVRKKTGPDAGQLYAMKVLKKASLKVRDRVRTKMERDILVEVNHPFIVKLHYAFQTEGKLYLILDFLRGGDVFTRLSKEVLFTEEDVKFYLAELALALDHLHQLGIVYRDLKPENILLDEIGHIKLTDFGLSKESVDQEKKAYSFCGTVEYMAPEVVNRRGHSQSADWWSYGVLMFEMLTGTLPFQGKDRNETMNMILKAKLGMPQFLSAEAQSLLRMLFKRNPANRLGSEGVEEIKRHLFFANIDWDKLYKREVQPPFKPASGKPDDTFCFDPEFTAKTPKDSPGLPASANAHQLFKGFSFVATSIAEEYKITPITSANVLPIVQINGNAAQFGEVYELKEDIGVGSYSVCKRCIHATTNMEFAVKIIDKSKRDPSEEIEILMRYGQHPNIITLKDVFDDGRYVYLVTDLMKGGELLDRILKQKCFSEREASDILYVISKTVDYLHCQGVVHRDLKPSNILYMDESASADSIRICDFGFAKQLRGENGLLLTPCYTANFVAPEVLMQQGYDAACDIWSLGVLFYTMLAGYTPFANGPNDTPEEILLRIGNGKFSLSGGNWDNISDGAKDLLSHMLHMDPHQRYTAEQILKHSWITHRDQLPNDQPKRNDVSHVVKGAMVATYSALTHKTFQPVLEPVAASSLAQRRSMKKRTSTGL

The compound `CNC(=O)c1ccccc1Nc1nsnc(Nc2cccc(CS(C)(=O)=O)c2)c1=O` [Compound 4, N-Methyl-2-([5-({3-[(methylsulfonyl)methyl]phenyl}amino)-4-oxo-4H-1,2,6-thiadiazin-3-yl]-amino}-benzamide] came in with a melting point of more than 300 °C. The “Number of Kinases Hit DSF > 2 °C” value in data set [1] is 0. Further, at DYRK1AA, the ΔTm at 10 µM is -0.5 °C. Further, the ΔTm at 10 µM on CDK2 turned out to be 0.2 °C. The ΔTm at 10 µM on RPS6KA1A was -0.4 °C. Further, the ΔTm at 10 µM on PKMYT1A was -0.3 °C. In addition, the ΔTm at 10 µM on MAPK3A was 0.1 °C. For the same compound, on RPS6KA6A, the ΔTm at 10 µM is -0.3 °C. Moreover, at TRIB2A, the ΔTm at 10 µM was approximately 1 °C. Also, the ΔTm on TRIB2A (10 µM) was 1,0 °C. At CDC42BPA, the ΔTm at 10 µM was -0.8 °C.

`CNC(=O)c1ccccc1Nc1nsnc(Nc2ccc(N3CCOCC3)cc2)c1=O` [Compound 5, N-Methyl-2-({5-[(4-morpholinophenyl)amino]-4-oxo-4H-1,2,6-thiadiazin-3-yl}amino)benzamide] had a melting point of 285 to 287 °C. Further, the “Number of Kinases Hit DSF > 2 °C” value in [1] is given as 0. Further, at DYRK1AA, the ΔTm at 10 µM was -0.8 °C. For the same compound, at CDK2, the ΔTm at 10 µM is -0.1 °C. Moreover, on RPS6KA1A, the ΔTm at 10 µM is -0.4 °C. For the same compound, the thermal shift (ΔTm) at 10 µM on PKMYT1A was -0.8 °C. The ΔTm at 10 µM at MAPK3A amounted to 0.1 °C. On RPS6KA6A, the ΔTm at 10 µM was -0.6 °C. Further, the shift in melting temperature (ΔTm) at 10 µM at TRIB2A is approximately 1 °C. Further, the ΔTm at 10 µM at CDC42BPA was -0.6 °C.

Take `Cc1ccc(Nc2nsnc(Nc3cccc(C(N)=O)c3)c2=O)cc1O` [Compound 1, 3-({5-[(3-Hydroxy-4-methylphenyl)amino]-4-oxo-4H-1,2,6-thiadiazin-3-yl}amino)benzamide]: the “Kinases Hit DSF > 2 °C” value in data set [1] is “TRIB2”. The “Number of Kinases Hit DSF > 2 °C” value in [1] is reported as 1. Also, the ΔTm at 10 µM is -0.6 °C at DYRK1AA; 0.2 °C on CDK2; -0.6 °C at RPS6KA1A; 0 °C at PKMYT1A; 0.1 °C on MAPK3A; 0.5 °C on RPS6KA6A. Further, the ΔTm at 10 µM on TRIB2A is 2.5 °C; at CDC42BPA, 0.3 °C.

Take `Cc1ccc(Nc2nsnc(Nc3ccc(C(N)=O)cc3)c2=O)cc1O` [Compound 2, 4-({5-[(3-Hydroxy-4-methylphenyl)amino]-4-oxo-4H-1,2,6-thiadiazin-3-yl}amino)benzamide]: the melting point is more than 300 °C. In [1], the “Kinases Hit DSF > 2 °C” value was “CAMK1D/G/K1/K2B, CDC42BPA, CDK2; also recorded: CHEK2, DYRK2, MAP2K7, PHKG2; also recorded: PIM1, PKMYT1, RPSKA6, STK3, STK17, TTK” and the “Number of Kinases Hit DSF > 2 °C” value amounted to 16. The ΔTm at 10 µM on DYRK1AA was determined as 0.9 °C. Also, at CDK2, the ΔTm at 10 µM worked out at 2.7 °C. The ΔTm at 10 µM at RPS6KA1A worked out at 1.3 °C. Besides, on PKMYT1A, the ΔTm at 10 µM was 3 °C. For the same compound, the ΔTm at 10 µM at MAPK3A turned out to be 1.2 °C. The ΔTm at 10 µM at RPS6KA6A was 2.6 °C. Besides, the ΔTm at 10 µM at CDC42BPA worked out at 4.8 °C.

`Cc1ccc(Nc2nsnc(Nc3ccc4c(c3)CS(=O)(=O)C4)c2=O)cc1O` [Compound 3, 3-[(2,2-Dioxido-1,3-dihydrobenzo[c]thiophen-5-yl)amino]-5-[(3-hydroxy-4-methylphenyl)amino]-4H-1,2,6-thiadiazin-4-one] came in with a melting point of more than 300 °C. In [1], the “Kinases Hit DSF > 2 °C” value is “STK10, TRIB2, TTK; also recorded: CAMK1G/2B, CDC42BPA,; also recorded: CLK1, MAP2K7, PIM1,” and the “Number of Kinases Hit DSF > 2 °C” value worked out at 9. Moreover, the shift in melting temperature (ΔTm) at 10 µM at DYRK1AA was -0.1 °C. Also, the ΔTm at 10 µM at CDK2 turned out to be 1.8 °C. On RPS6KA1A, the ΔTm at 10 µM was -0.4 °C. Besides, the ΔTm at 10 µM on PKMYT1A stood at 1.2 °C. The ΔTm at 10 µM on MAPK3A is 0.4 °C. In addition, the ΔTm at 10 µM on RPS6KA6A came out at 0.9 °C. Moreover, the ΔTm at 10 µM on TRIB2A stood at 4.9 °C. Further, the ΔTm at 10 µM at CDC42BPA came to 2.3 °C.

These data come from publication PMC6019134, “1,2,6-Thiadiazinones as Novel Narrow Spectrum Calcium/Calmodulin-Dependent Protein Kinase Kinase 2 (CaMKK2) Inhibitors” (Molecules : A Journal of Synthetic Chemistry and Natural …, 2018).
